# Values of other authors, collected in patent US20200147085A1, “COMPOSITIONS AND METHODS FOR TREATMENT OF PSYCHIATRIC DISORDERS” (priority 2007, published 2020).
# Experiments:
# healthy volunteers = details: daily iv infusion for 7 days; not supine
# [1] = healthy controls, single oral dose of 400 mg of SAM
# [2] = parenterally administered SAM
# [3] = tested on: chronic renal failure patients; details: 4 grams daily, with 5 mg folate and 50 mg pyridoxine daily; not fasting levels
# [4] = rats, intraperitoneal
# schizophrenic patients = details: 10-20 grams/day
smiles,measurement,setting,value
"C[S+](CC[C@H](N)C(=O)O)C[C@H]1O[C@@H](n2cnc3c(N)ncnc32)[C@H](O)[C@@H]1O (stereo partly drawn) [SAM, S-adenosylmethionine]",decrease in standing heart rate,healthy volunteers,6 beats/minute
same,half-life of SAM,[1],1.7 ± 0.3 h
same,SAM levels in cerebral spinal fluid,[2],about 130 % of controls
"C[N+](C)(C)CC(=O)[O-] [betaine, trimethylglycine]",decrease of post-methionine loading homocysteine levels,[3],18%
"CSCC[C@H](N)C(=O)O [methionine, L-methionine]",SAM in brain,[4],about 130 % of controls
same,schizophrenic patients with worsened psychosis,schizophrenic patients,about 40%
